From ChEMBL document CHEMBL1201862, “PubChem BioAssay data set” (2004)
Active and inactive are the calls of the source.

How the values were obtained:
[1] = biological target: Luciferin 4-monooxygenase (Photinus pyralis, UniProt P08659); experiment: Counter Screen for Luciferase-based Assay Positives. [Related pubchem assays: 620, 618, 411 ]
HT-1080 = experiment: cytotoxicity in HT1080 fibrosarcoma cells, cell-based, fluorescence readout (AID 620); type: functional; conditions: Homo sapiens
[2] = NIH-3T3 fibroblast cytotoxicity, dose response, cytotoxicity control, cell-based, fluorescence, Alamar Blue, secondary assay (AID 2327); type: functional;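 also: NIH-3T3 mouse fibroblasts cultured with fluconazole at 8 µg/mL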
HEK293 = experiment: Fluorescence-based counterscreen for potentiators or agonists of NPY-Y2: cell-based high-throughput dose response assay to identify inhibitors of cyclic nucleotide gated ion channel (CNGC) activity. In this assay, the parental HEK293 cell line transfected with a cyclic-nucleotide gated ion channel (CNGC)-based cAMP sensor is used to measure inhibition of isoproterenol-induced CNGC activity by test compound.; type: functional; conditions: Homo sapiens;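 also: stimulus is 1 µM isoproterenol at EC100 plus PDE inhibitor Ro 20-1724 at 25 µM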
[3] = biological target: T1, Neuropeptide Y receptor type 2 (Homo sapiens, UniProt P49146); experiment: Fluorescence-based cell-based high-throughput dose response assay for agonists of NPY-Y2. [Related pubchem assays: 1703 (Screening assay (CNGC inhibitors).), 1359 (Screening assay (NPY-Y2 potentiators or agonists).), 1304 (Screening assay (NPY-Y1 potentiators or agonists).), 1710 (Screening assay (NPY-Y2 agonists).), 1791 (Summary AID.)]; type: functional
T1 sequence (P49146 whole entry): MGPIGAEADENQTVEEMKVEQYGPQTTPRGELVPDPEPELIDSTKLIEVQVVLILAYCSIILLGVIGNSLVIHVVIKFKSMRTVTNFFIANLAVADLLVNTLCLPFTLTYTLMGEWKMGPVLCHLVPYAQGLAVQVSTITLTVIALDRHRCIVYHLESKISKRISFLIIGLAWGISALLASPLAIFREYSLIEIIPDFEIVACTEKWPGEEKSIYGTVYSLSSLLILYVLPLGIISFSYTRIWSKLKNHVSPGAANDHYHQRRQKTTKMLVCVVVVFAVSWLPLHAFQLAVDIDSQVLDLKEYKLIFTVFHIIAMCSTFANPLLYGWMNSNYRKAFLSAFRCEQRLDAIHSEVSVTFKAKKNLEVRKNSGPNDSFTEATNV

[4] = C. albicans growth with fluconazole, confirmation, fluorescence, retest (AID 2467); type: functional, cell-based
[5] = biological target: T2, Neuropeptide Y receptor type 1 (Homo sapiens, UniProt P25929); experiment: Fluorescence-based counterscreen for agonists of NPY-Y2: cell-based high-throughput dose response assay for agonists of NPY-Y1.; type: functional
T2 sequence (P25929 whole entry): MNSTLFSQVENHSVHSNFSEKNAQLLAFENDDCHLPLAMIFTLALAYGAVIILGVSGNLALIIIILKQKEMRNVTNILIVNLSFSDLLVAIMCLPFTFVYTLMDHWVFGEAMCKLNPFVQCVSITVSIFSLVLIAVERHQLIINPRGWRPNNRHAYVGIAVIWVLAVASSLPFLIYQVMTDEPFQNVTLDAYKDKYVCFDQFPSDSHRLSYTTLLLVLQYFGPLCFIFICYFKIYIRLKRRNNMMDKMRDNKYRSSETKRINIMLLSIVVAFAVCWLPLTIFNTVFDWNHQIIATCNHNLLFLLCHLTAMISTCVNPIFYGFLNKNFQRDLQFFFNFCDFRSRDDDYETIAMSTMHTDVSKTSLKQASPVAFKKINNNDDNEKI

[6] = biological target: T3, Calpain-2 catalytic subunit (Sus scrofa, UniProt P43367); experiment: pig calpain II inhibitor potency, dose response, biochemical, fluorogenic peptide substrate (AID 1420); type: functional
T3 sequence (P43367 whole entry): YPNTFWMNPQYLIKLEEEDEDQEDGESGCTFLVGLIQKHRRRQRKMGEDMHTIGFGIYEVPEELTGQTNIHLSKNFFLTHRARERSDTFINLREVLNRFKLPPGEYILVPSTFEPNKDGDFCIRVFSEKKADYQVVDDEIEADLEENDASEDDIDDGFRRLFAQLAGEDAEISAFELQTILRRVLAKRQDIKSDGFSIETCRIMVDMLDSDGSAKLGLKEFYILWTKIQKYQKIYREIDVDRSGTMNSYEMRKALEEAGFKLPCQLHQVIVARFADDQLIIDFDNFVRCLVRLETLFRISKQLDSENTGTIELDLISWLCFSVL

[7] = biological target: T4, Heat shock factor protein 1 (Mus musculus, UniProt P38532); experiment: HSF1 potentiators in luciferase reporter cells, confirmation, cell-based, NIH3T3, luminescence, dose retest (AID 435004); type: functional;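 also: stress induced by proteasome inhibitor MG132 added 30 min after compound; luciferase reporter driven by HSF1 response element in NIH3T3 cells; actives raise luminescence as potentiators of the MG132 stress response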
T4 sequence (P38532 whole entry): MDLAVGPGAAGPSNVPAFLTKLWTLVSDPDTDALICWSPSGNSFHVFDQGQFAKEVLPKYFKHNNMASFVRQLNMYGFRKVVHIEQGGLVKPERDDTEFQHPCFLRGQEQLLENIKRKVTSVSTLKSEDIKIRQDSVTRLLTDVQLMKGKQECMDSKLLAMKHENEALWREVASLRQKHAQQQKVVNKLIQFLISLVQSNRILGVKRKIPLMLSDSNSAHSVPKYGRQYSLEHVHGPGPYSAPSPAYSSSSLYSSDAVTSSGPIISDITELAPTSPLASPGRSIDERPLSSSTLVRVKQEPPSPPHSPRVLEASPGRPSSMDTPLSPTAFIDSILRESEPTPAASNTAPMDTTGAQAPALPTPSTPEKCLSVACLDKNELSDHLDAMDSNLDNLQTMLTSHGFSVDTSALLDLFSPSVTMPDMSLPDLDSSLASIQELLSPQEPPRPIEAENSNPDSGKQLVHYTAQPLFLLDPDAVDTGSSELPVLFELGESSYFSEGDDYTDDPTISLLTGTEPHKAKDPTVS

[8] = test system: Streptococcus sp. 'group A'; experiment: growth inhibition of control SK(-) GAS strain, dose response, counter-screen for streptokinase expression inhibitor project, luminescence, kanamycin, BacTiterGlo, confirmation (AID 1900); type: functional, organism-based
[9] = biological target: T5, Alkaline phosphatase, tissue-nonspecific isozyme (Homo sapiens, UniProt P05186)
T5 sequence (P05186 whole entry): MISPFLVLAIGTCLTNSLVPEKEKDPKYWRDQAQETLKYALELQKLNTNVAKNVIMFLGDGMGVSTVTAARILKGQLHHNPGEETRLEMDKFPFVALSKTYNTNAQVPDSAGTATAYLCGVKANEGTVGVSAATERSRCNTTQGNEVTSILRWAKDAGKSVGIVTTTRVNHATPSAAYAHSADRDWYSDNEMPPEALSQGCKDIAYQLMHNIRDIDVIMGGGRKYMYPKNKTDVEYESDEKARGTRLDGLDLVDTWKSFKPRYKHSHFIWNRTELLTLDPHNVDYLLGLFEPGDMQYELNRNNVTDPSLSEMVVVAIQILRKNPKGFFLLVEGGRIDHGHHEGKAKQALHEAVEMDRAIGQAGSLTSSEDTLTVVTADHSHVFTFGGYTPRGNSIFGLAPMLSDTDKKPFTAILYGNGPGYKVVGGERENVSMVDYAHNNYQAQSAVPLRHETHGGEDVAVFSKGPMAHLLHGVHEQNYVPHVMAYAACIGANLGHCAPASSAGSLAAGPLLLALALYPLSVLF

Streptokinase A = biological target: T6, Streptokinase A (Streptococcus pyogenes serotype M1, UniProt P10520); experiment: S. pyogenes streptokinase expression inhibitors, potency, dose response, plasminogen activation absorbance, OD405 (AID 1914); type: functional, Streptococcus pyogenes M1 GAS;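 also: secreted streptokinase activity via plasminogen activation per viability signal from cell pellet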
T6 sequence (P10520 whole entry): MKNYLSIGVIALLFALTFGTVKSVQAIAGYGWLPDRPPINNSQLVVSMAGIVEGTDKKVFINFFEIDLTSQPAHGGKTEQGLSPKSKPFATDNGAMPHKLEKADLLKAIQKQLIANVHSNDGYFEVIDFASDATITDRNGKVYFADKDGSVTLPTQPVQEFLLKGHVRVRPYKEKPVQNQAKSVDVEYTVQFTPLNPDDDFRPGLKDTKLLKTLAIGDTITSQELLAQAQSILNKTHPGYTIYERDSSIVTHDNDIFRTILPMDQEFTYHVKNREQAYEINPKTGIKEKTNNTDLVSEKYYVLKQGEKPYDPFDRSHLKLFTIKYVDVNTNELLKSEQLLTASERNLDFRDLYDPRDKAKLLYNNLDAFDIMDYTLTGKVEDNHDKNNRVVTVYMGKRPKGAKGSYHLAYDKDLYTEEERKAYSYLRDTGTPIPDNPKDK

Streptococcus = experiment: Group A Streptococcus viability loss, dose response, counter-screen for streptokinase expression inhibitor project, luminescence, BacTiterGlo (AID 1915); type: functional, organism-based;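 also: potency for reduction of bacterial viability or growth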
[10] = biological target: T7, Ubiquitin-conjugating enzyme E2 N (Homo sapiens, UniProt P61088); type: functional;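 also: Dose-response confirmation in a TR-FRET assay detecting UBC13-driven polyubiquitin chain formation, inhibition measured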
T7 sequence (P61088 whole entry): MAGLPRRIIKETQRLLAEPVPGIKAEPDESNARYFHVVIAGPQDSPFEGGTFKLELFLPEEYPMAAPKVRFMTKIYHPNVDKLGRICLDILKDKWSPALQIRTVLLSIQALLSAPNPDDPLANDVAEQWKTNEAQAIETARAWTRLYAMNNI

[11] = M. tuberculosis H37Rv growth inhibitors, H37Rv strain (AID 1626); type: functional
SUMO-activating enzyme [12] = biological target: T8, SUMO-activating enzyme (Homo sapiens, UniProt Q9UBT2); experiment: SUMOylation inhibitor hit validation, confirmation, SUMOylation inhibitor project, biochemical, AlphaScreen (AID 2018); type: functional
T8 sequence (Q9UBE0 whole entry): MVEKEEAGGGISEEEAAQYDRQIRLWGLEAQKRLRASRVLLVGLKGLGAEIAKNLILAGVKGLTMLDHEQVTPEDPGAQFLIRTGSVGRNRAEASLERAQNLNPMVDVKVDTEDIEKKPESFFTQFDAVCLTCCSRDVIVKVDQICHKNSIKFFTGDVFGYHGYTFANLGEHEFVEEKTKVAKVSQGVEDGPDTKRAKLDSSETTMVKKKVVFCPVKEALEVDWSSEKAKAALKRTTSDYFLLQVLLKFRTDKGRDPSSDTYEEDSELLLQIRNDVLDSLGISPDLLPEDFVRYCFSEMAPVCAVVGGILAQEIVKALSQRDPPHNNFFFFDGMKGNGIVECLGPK
T8 sequence (Q9UBT2 whole entry): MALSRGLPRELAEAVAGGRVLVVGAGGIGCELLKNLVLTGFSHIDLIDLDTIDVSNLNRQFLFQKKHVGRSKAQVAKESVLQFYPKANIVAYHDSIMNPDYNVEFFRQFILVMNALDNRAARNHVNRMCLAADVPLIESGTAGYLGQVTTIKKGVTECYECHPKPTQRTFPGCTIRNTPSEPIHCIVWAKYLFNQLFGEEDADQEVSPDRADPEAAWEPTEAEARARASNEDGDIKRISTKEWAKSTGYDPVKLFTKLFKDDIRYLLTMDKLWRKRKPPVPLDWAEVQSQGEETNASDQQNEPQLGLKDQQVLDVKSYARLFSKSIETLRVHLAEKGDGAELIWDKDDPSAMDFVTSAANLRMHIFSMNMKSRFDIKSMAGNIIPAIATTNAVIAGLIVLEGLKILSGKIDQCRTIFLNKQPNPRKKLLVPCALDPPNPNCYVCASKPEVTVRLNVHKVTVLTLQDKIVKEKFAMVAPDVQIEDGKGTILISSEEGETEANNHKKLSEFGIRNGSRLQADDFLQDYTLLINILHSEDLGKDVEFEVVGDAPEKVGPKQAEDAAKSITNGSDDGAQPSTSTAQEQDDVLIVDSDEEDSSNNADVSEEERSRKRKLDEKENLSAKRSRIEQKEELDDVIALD

SUMO-activating enzyme [13] = biological target: T8, SUMO-activating enzyme; experiment: inhibitors of in vitro SUMOylation cascade, primary screen, biochemical, HTRF, uHTS (AID 2006); type: protein-complex assay
[14] = biological target: Induced myeloid leukemia cell differentiation protein Mcl-1 (Homo sapiens, UniProt Q07820); experiment: MCL1-BIM BH3 interaction inhibitors, dose response, biochemical, fluorescence polarization, BIM-BH3 peptide, 1536-well (AID 2217)
Induced myeloid leukemia cell differentiation protein Mcl-1, sequence (Q07820 whole entry): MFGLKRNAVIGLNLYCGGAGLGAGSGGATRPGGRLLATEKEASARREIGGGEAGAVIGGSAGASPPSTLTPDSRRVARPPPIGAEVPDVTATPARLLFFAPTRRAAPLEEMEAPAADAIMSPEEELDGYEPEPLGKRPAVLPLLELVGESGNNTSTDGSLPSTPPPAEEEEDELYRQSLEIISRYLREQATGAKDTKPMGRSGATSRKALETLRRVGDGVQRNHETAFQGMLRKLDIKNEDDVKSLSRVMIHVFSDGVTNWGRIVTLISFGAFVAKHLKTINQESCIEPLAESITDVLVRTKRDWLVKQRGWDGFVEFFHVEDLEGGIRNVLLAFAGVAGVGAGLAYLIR

Bcl-2-like protein 1 = Bcl-2-like protein 1 (Homo sapiens, UniProt Q07817); experiment: BCL-XL inhibitors, dose response, selectivity assay for MCL1 inhibitor project, biochemical, fluorescence polarization, 1536-well (AID 2218)
Bcl-2-like protein 1, sequence (Q07817 whole entry): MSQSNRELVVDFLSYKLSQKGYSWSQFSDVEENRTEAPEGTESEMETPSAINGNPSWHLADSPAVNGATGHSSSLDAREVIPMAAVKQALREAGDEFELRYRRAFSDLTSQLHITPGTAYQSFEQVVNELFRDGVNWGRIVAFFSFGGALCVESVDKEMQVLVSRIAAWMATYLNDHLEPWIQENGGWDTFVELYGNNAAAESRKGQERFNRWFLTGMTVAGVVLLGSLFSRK

Estrogen receptor beta [15] = biological target: T9, Estrogen receptor beta (Homo sapiens, UniProt Q92731);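 also: recombinant ER-beta bound to coactivator SRC1 peptide in presence of estradiol agonist; inhibitors block coactivator peptide binding and lower the FRET signal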
T9 sequence (Q92731 whole entry): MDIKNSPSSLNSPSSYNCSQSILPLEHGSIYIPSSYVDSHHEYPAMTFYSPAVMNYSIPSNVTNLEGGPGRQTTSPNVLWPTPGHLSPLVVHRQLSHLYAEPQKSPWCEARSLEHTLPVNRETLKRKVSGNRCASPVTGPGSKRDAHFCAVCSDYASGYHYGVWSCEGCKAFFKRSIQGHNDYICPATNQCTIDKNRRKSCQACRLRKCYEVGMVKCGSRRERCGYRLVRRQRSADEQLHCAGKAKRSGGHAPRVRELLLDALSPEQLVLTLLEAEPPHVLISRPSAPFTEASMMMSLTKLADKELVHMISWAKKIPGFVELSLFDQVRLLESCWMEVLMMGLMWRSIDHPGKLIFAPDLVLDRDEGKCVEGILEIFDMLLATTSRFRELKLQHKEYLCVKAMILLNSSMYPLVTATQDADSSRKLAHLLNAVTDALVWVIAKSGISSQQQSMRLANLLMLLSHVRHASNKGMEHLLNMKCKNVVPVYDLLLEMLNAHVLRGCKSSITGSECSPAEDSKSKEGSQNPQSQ

Estrogen receptor beta [16] = biological target: T9, Estrogen receptor beta; experiment: ERβ–SRC-3 coactivator interaction inhibitors, confirmation, orthogonal assay, biochemical, ELISA, streptavidin-HRP readout (AID 1060)
[17] = biological target: T10, Carboxy-terminal domain RNA polymerase II polypeptide A small phosphatase 1 (Homo sapiens, UniProt Q9GZU7); experiment: inhibitors of CTDSP1, concentration-response testing, biochemical assay, absorbance-based, actives from ultra-high-throughput screening (AID 540297); type: functional
T10 sequence (Q9GZU7 whole entry): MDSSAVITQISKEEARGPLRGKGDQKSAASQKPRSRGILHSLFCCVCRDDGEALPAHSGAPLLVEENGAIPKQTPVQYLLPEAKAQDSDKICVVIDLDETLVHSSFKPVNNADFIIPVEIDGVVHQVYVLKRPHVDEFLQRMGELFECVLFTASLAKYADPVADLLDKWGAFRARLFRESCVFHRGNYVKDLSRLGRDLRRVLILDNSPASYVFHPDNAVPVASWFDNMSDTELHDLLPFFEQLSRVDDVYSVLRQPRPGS

Aspartyl aminopeptidase = Aspartyl aminopeptidase (Plasmodium falciparum 3D7, UniProt Q8I2J3)
Aspartyl aminopeptidase, sequence (Q8I2J3 whole entry): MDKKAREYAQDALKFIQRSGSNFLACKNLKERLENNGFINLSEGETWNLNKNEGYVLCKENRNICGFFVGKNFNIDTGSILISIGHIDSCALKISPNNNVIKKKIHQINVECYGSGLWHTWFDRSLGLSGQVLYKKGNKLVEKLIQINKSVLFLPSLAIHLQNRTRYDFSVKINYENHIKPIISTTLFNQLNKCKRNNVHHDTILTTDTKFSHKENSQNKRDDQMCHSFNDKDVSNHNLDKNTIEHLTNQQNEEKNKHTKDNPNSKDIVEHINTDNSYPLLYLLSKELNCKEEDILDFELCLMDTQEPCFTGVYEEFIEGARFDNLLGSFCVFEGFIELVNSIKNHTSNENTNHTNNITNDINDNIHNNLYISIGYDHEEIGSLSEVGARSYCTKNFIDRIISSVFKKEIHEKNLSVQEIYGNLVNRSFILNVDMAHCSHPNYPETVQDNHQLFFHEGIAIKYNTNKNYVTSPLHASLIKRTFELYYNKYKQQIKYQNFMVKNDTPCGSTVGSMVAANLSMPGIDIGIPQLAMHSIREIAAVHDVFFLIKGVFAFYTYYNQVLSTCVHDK

Procathepsin L = Procathepsin L (Homo sapiens, UniProt P07711)
Procathepsin L, sequence (P07711 whole entry): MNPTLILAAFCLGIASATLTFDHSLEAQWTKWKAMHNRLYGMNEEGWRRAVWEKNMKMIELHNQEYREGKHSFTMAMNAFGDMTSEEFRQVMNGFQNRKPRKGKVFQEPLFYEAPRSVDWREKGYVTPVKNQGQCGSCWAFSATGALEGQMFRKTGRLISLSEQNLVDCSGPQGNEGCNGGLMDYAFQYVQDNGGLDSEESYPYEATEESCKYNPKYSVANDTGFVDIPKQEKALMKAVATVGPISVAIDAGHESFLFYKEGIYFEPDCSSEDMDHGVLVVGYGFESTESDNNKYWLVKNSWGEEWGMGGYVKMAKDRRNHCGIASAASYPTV

[18] = biological target: Epstein-Barr nuclear antigen 1 (Epstein-Barr virus (strain B95-8) (HHV-4) (Human herpesvirus 4), UniProt P03211); experiment: EBNA-1 inhibitors, dose response, biochemical, fluorescence polarization, 1536-well (AID 2381); design: species or system human gammaherpesvirus 4;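 also: fluorescence polarization of a Cy5 DNA probe bound by EBNA-1 protein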
Epstein-Barr nuclear antigen 1, sequence (P03211 whole entry): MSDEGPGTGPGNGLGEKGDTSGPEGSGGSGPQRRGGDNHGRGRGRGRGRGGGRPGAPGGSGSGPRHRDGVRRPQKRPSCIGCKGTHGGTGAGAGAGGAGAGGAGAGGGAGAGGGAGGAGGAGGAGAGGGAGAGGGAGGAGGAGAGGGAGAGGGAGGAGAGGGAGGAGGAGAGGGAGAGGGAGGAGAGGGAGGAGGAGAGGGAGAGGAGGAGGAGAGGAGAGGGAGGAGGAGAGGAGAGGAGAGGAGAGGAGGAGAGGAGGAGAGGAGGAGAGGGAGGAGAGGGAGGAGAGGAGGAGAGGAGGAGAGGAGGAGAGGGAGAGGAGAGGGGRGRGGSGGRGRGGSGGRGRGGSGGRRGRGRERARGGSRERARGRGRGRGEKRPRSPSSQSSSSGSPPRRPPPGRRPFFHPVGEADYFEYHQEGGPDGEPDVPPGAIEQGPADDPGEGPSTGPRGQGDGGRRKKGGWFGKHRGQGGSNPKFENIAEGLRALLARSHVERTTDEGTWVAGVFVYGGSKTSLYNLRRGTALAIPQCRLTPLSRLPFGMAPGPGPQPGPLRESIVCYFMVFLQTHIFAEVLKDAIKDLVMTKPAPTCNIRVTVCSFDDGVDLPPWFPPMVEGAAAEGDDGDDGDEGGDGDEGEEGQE

[19] = biological target: Lytic switch protein BZLF1 (Epstein-Barr virus (strain B95-8) (HHV-4) (Human herpesvirus 4), UniProt P03206); experiment: EBV ZTA inhibitors, dose response, counter-screen for EBNA-1 inhibitor project, biochemical, fluorescence polarization, Epstein-Barr virus, 1536-well (AID 2377); design: species or system human gammaherpesvirus 4;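 also: fluorescence polarization of Cy5-labelled ZRE DNA probe bound by purified Zta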
Lytic switch protein BZLF1, sequence (P03206 whole entry): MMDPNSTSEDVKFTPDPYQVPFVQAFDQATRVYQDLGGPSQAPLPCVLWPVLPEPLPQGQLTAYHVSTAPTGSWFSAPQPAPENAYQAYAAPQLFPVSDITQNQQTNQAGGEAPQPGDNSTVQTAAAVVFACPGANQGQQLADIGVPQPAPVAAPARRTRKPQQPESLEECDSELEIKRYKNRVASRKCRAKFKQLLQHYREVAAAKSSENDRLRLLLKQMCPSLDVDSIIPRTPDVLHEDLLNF

Cytochrome P450 2D6 = Cytochrome P450 2D6 (Homo sapiens, UniProt P10635);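 also: CYP2D6 member of a cytochrome P450 panel assay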
Cytochrome P450 2D6, sequence (P10635 whole entry): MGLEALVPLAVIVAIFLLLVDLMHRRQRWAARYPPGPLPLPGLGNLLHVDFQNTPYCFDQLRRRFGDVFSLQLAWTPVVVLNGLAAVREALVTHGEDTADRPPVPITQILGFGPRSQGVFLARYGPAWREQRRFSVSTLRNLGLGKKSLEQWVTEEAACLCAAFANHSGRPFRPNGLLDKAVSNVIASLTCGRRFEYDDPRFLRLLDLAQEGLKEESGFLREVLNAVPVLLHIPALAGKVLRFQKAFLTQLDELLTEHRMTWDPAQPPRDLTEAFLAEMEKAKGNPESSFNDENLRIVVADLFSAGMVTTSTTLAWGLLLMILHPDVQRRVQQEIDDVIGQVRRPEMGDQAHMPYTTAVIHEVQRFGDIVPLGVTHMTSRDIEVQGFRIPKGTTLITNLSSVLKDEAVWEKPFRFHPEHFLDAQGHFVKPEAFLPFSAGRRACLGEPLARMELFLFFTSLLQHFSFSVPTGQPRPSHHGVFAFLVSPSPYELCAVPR

Luciferin 4-monooxygenase, sequence (P08659 whole entry): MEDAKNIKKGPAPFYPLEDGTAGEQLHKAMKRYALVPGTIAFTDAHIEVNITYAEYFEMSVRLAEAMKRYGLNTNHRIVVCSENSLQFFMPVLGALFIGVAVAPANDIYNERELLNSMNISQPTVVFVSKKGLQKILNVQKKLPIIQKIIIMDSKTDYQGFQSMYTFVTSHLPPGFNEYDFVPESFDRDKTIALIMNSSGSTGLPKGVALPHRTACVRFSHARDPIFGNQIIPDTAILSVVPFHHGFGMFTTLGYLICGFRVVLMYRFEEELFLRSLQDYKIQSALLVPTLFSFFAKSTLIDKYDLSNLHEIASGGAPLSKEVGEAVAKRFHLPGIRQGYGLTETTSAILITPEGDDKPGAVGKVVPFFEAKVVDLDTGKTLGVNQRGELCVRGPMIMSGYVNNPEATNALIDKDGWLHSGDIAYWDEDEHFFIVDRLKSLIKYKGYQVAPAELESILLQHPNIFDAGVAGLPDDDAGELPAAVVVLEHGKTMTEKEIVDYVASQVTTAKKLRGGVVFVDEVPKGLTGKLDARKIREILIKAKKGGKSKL

Clc1ccccc1OCc1nc(-c2ccccn2)no1
EC50 [1]: > 100 µM (not active) | EC50 (HT-1080): > 50 µM (not active)

O=C(COc1ccc(Cl)cc1)Nc1ncc([N+](=O)[O-])s1
EC50 [2]: 36 µM (active) | EC50 (HEK293): > 35.4 µM (not active) | EC50 [3]: > 35.4 µM (not active) | EC50 [4]: 0.166 µM (active) | EC50 [5]: 33.8 µM (not active) | IC50 [6]: 24.9 µM (not active) | EC50 [7]: 0.382 µM (active)

COc1ccc(Cl)cc1NC(=O)CN1CCC(n2nnc3cc(C)ccc32)CC1
EC50 [8]: 12.2 µM (active) | EC50 [9]: 70.6 µM (not active) | EC50 (Streptokinase A): 26.4 µM (active) | EC50 (Streptococcus): 93.4 µM (active) | IC50 [10]: > 20 µM (inactive)

COc1ccc(N2CCN(c3nc(-c4cccs4)nc4ccccc34)CC2)cc1
IC50 [11]: > 100 µM (active)

Cc1ccc(C(=O)O)cc1-c1ccc(/C=C2\SC(=O)N(CC(=O)Nc3ccc4c(c3)OCO4)C2=O)o1
IC50 (SUMO-activating enzyme [12]): 4.35 µM (active) | IC50 (SUMO-activating enzyme [13]): 10.3 µM (active) | IC50 [14]: > 4.03 µM (active) | IC50 (Bcl-2-like protein 1): > 109 µM (not active)

CCOC(=O)C1CCCN(C(=O)c2ccc(CS(=O)(=O)c3ccc(C)cc3)o2)C1 (stereo not drawn)
IC50 (Estrogen receptor beta [15]): 13.7 µM (active) | IC50 (Estrogen receptor beta [16]): < 0.023 µM (not active) | IC50 [17]: 7.41 µM (active)

Nc1nncn1C(=O)CCCOc1ccc(Cl)cc1Cl
IC50 (Aspartyl aminopeptidase): 2.6 µM (active) | IC50 (Procathepsin L): > 59.6 µM (not active)

CCN(CC)S(=O)(=O)c1ccc(C(=O)Nn2cnnc2)cc1
IC50 (Aspartyl aminopeptidase): 1.07 µM (active) | IC50 (Procathepsin L): > 59.6 µM (not active)

Cc1ccc(C(=O)Nc2nc3ccc(S(C)(=O)=O)cc3s2)cc1C
IC50 [18]: 4.48 µM (active) | IC50 [19]: > 111 µM (not active)

CC(=O)OCCCN1c2ccccc2Nc2nnc(-c3ccccc3)cc21
EC50 [9]: 71.8 µM (not active) | IC50 [11]: > 100 µM (active) | AC50 (Cytochrome P450 2D6): 15.8 µM (inconclusive)

Cc1cc(NC(=O)COC(=O)c2oc3c(ccc4ccccc43)c2C)no1
IC50 [18]: 9.17 µM (active) | IC50 [19]: > 111 µM (not active)
